Data as given in patent US20200055839A1 (priority 2017, published 2020).

Test system: NL-RLuc virus
Assay: Inhibition of HIV replication (NL-RLuc virus, luciferase readout in MT-2 cells)
Assay type: cell-based
Settings: MT-2 cells infected with NL-RLuc virus, 5 days of incubation, 10% FBS, at least 2 experiments
Method in brief: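 MT-2 cells infected with NL4-3-derived virus carrying Renilla luciferase in place of part of nef, grown 5 days with serial compound dilutions in RPMI 1640/10% FBS. Virus growth read as luciferase expression. EC50 from median effect equation, at least 2 experiments.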

[1] = Human immunodeficiency virus 1, MT2, 120 h

| Structure (SMILES) | EC50 [1] | EC50 |
| --- | --- | --- |
| Cc1cc(CCOc2ccc(-c3cnc(C)c([C@H](OC(C)(C)C)C(=O)O)c3N3CCC(C)(C)CC3)nc2)ccc1F [Example 294, (2S)-2-(tert-butoxy)-2-[4′-(4,4-dimethylpiperidin-1-yl)-5-[2-(4-fluoro-3-methylphenyl)ethoxy]-6′-methyl-[2,3′-bipyridine]-5′-yl]acetic acid] | 2 nM | – |
| Cc1ncc(-c2ccc(OC(C)C)cn2)c(N2CCC(C)(C)CC2)c1[C@H](OC(C)(C)C)C(=O)O [Example 314, (2S)-2-(tert-butoxy)-2-[4′-(4,4-dimethylpiperidin-1-yl)-6′-methyl-5-(propan-2-yloxy)-[2,3′-bipyridine]-5′-yl]acetic acid] | 5 nM | – |
| Cc1cccc(CCOc2ccc(-c3cnc(C)c([C@H](OC(C)(C)C)C(=O)O)c3N3CCC(C)(C)CC3)cc2)c1 [Example 365, (2S)-2-(tert-butoxy)-2-[4-(4,4-dimethylpiperidin-1-yl)-2-methyl-5-{4-[2-(3-methylphenyl)ethoxy]phenyl}pyridin-3-yl]acetic acid] | 2 nM | – |
| Cc1ncc(-c2cncc(F)c2)c(N2CCC(C)(C)CC2)c1[C@H](OC(C)(C)C)C(=O)O [Example 148, (2S)-2-(tert-Butoxy)-2-[4-(4,4-dimethylpiperidin-1-yl)-5′-fluoro-6-methyl-[3, 3′-bipyridine]-5-yl]acetic acid] | 7 nM | – |
| COc1ccc(CCOc2ccc(-c3cnc(C)c([C@H](OC(C)(C)C)C(=O)O)c3N3CCC(C)(C)CC3)nc2)cc1F [Example 330, (2S)-2-(tert-butoxy)-2-[4′-(4,4-dimethylpiperidin-1-yl)-5-[2-(3-fluoro-4-methoxyphenyl)ethoxy]-6′-methyl-[2,3′-bipyridine]-5′-yl]acetic acid] | 0.4 nM | – |
| Cc1ncc(-c2ccc(OCCCc3ccccc3)cn2)c(N2CCC(C)(C)CC2)c1[C@H](OC(C)(C)C)C(=O)O [Example 321, (2S)-2-(tert-butoxy)-2-[4′-(4,4-dimethylpiperidin-1-yl)-6′-methyl-5-(3-phenylpropoxy)-[2,3′-bipyridine]-5′-yl]acetic acid] | 0.5 nM | – |
| CCC(C)COc1ccc(-c2cnc(C)c([C@H](OC(C)(C)C)C(=O)O)c2N2CCC(C)(C)CC2)nc1 (stereo partly drawn) [Example 360, (2S)-2-(tert-butoxy)-2-[4′-(4,4-dimethylpiperidin-1-yl)-6′-methyl-5-(2-methylbutoxy)-[2,3′-bipyridine]-5′-yl]acetic acid] | 0.8 nM | – |
| Cc1ncc(-c2cc(F)ccc2F)c(N2CCC(C)(C)CC2)c1[C@H](OC(C)(C)C)C(=O)O [Example 130, (2S)-2-(tert-Butoxy)-2-[5-(2,5-difluorophenyl)-4-(4,4-dimethylpiperidin-1-yl)-2-methylpyridin-3-yl]acetic acid] | 13 nM | – |
| Cc1nc(-c2cn[nH]c2)c(-c2ccc(OCCc3ccc(F)cc3)cc2)c(N2CCC(C)(C)CC2)c1[C@H](OC(C)(C)C)C(=O)O [Example 51, (S)-2-(tert-Butoxy)-2-(4-(4,4-dimethylpiperidin-1-yl)-5-(4-(4-fluorophenethoxy)phenyl)-2-methyl-6-(1H-pyrazol-4-yl)pyridin-3-yl)acetic acid] | 5 nM | – |
| COc1cccc(CCOc2ncc(-c3cnc(C)c([C@H](OC(C)(C)C)C(=O)O)c3N3CCC(C)(C)CC3)cc2F)c1 [Example 383, (2S)-2-(tert-butoxy)-2-[4-(4,4-dimethylpiperidin-1-yl)-5′-fluoro-6′-[2-(3-methoxyphenyl)ethoxy]-6-methyl-[3,3′-bipyridine]-5-yl]acetic acid] | 3 nM | – |
| Cc1cc(-c2cnc(C)c([C@H](OC(C)(C)C)C(=O)O)c2N2CCC(C)(C)CC2)nnc1OCCc1ccc(F)cc1 [Example 268, (S)-2-(tert-Butoxy)-2-(4-(4,4-dimethylpiperidin-1-yl)-5-(6-(4-fluorophenethoxy)-5-methylpyridazin-3-yl)-2-methylpyridin-3-yl)acetic acid] | 50 nM | – |
| Cc1nc(C#N)c([C@H](OC(C)(C)C)C(=O)O)c(N2CCC(C)(C)CC2)c1-c1ccc(OCCc2ccc(F)cc2)cc1 [Example 5, (S)-2-(tert-Butoxy)-2-(2-cyano-4-(4,4-dimethylpiperidin-1-yl)-5-(4-(4-fluorophenethoxy)phenyl)-6-methylpyridin-3-yl)acetic acid] | 7 nM | – |
| Cc1cccc(Cl)c1CCOc1ccc(-c2cnc(C)c([C@H](OC(C)(C)C)C(=O)O)c2N2CCC(C)(C)CC2)nc1 [Example 284, (S)-2-(tert-Butoxy)-2-(5-(2-chloro-6-methylphenethoxy)-4′-(4,4-dimethylpiperidin-1-yl)-6′-methyl-[2, 3′-bipyridin]-5′-yl)acetic acid] | 3 nM | – |
| CC1(C)CCN(c2c(-c3ccc(OCCc4ccc(F)cc4)c(F)c3)c(CN3CCC4(CCC4)CC3)nc(Cl)c2[C@H](OC(C)(C)C)C(=O)O)CC1 [Example 210, (S)-2-(6-((7-Azaspiro[3.5]nonan-7-yl)methyl)-2-chloro-4-(4,4-dimethylpiperidin-1-yl)-5-(3-fluoro-4-(4-fluorophenethoxy)phenyl)pyridin-3-yl)-2-(tert-butoxy)acetic acid] | 2 nM | – |
| Cc1nc(Nc2ccccc2)c(-c2ccc(OCCc3ccc(F)cc3)cc2)c(N2CCC(C)(C)CC2)c1[C@H](OC(C)(C)C)C(=O)O [Example 67, (S)-2-(tert-Butoxy)-2-(4-(4,4-dimethylpiperidin-1-yl)-5-(4-(4-fluorophenethoxy)phenyl)-2-methyl-6-(phenylamino)pyridin-3-yl)acetic acid] | 27 nM | – |
| CCC(C)(C)O[C@H](C(=O)O)c1c(C)ncc(-c2ccc(OCCc3ccc(F)cc3)cn2)c1N1CCC(C)(C)CC1 [Example 246, (S)-2-(4′-(4,4-Dimethylpiperidin-1-yl)-5-(4-fluorophenethoxy)-6′-methyl-[2, 3′-bipyridin]-5′-yl)-2-(tert-pentyloxy)acetic acid] | 0.4 nM | – |
| Cc1cc(-c2cnc(C)c([C@H](OC(C)(C)C)C(=O)O)c2N2CCC(C)(C)CC2)ncc1OCCc1ccc(F)cc1 [Example 248, (S)-2-(tert-Butoxy)-2-(4′-(4,4-dimethylpiperidin-1-yl)-5-(4-fluorophenethoxy)-4, 6′-dimethyl-[2, 3′-bipyridin]-5′-yl)acetic acid] | 1 nM | – |
| Cc1ncc(-c2ncccn2)c(N2CCC(C)(C)CC2)c1[C@H](OC(C)(C)C)C(=O)O [Example 187, (2S)-2-(tert-Butoxy)-2-[4-(4,4-dimethylpiperidin-1-yl)-2-methyl-5-(pyrimidin-2-yl)pyridin-3-yl]acetic acid] | 107 nM | – |
| Cc1ncc(-c2cccc(C(N)=O)c2)c(N2CCC(C)(C)CC2)c1[C@H](OC(C)(C)C)C(=O)O [Example 146, (2S)-2-(tert-Butoxy)-2-[5-(3-carbamoylphenyl)-4-(4,4-dimethylpiperidin-1-yl)-2-methylpyridin-3-yl]acetic acid] | 142 nM | – |
| Cc1ncc(-c2ccc(OCCCCc3ccccc3)cn2)c(N2CCC(C)(C)CC2)c1[C@H](OC(C)(C)C)C(=O)O [Example 341, (2S)-2-(tert-butoxy)-2-[4′-(4,4-dimethylpiperidin-1-yl)-6′-methyl-5-(4-phenylbutoxy)-[2,3′-bipyridine]-5′-yl]acetic acid] | 3 nM | – |
| COc1cc(-c2cnc(C)c([C@H](OC(C)(C)C)C(=O)O)c2N2CCC(C)(C)CC2)ccn1 [Example 164, (2S)-2-(tert-Butoxy)-2-[4-(4,4-dimethylpiperidin-1-yl)-2′-methoxy-6-methyl-[3, 4′-bipyridine]-5-yl]acetic acid] | 4 nM | – |
| Cc1nc(-c2cncnc2)c(-c2ccc(OCCc3ccc(F)cc3)cc2)c(N2CCC(C)(C)CC2)c1[C@H](OC(C)(C)C)C(=O)O [Example 39, (S)-2-(tert-Butoxy)-2-(4-(4,4-dimethylpiperidin-1-yl)-5-(4-(4-fluorophenethoxy)phenyl)-2-methyl-6-(pyrimidin-5-yl)pyridin-3-yl)acetic acid] | 3 nM | – |
| Cc1nc(-c2cnn(C3CC3)c2)c(-c2ccc(OCCc3ccc(F)cc3)cc2)c(N2CCC(C)(C)CC2)c1[C@H](OC(C)(C)C)C(=O)O [Example 47, (S)-2-(tert-Butoxy)-2-(6-(1-cyclopropyl-H-pyrazol-4-yl)-4-(4,4-dimethylpiperidin-1-yl)-5-(4-(4-fluorophenethoxy)phenyl)-2-methylpyridin-3-yl)acetic acid] | 4 nM | – |
| Cc1ccc(CCOc2ccc(-c3cnc(C)c([C@H](OC(C)(C)C)C(=O)O)c3N3CCC(C)(C)CC3)nc2)cc1 [Example 300, (2S)-2-(tert-butoxy)-2-[4′-(4,4-dimethylpiperidin-1-yl)-6′-methyl-5-[2-(4-methylphenyl)ethoxy]-[2,3′-bipyridine]-5′-yl]acetic acid] | 1 nM | – |
| Cc1ncc(-c2cc(F)c(OCCc3ccc(F)cc3)c(F)c2)c(N2CCC(C)(C)CC2)c1[C@H](OC(C)(C)C)C(=O)O [Example 127, (S)-2-(tert-Butoxy)-2-(5-(3,5-difluoro-4-(4-fluorophenethoxy)phenyl)-4-(4,4-dimethylpiperidin-1-yl)-2-methylpyridin-3-yl)acetic acid] | 4 nM | – |
| Cc1nc(C(=O)N2CCC(C)(C)CC2)c(-c2ccc(OCCc3ccc(F)cc3)cc2)c(N2CCC(C)(C)CC2)c1[C@H](OC(C)(C)C)C(=O)O [Example 11, (S)-2-(tert-Butoxy)-2-(4-(4,4-dimethylpiperidin-1-yl)-6-(4,4-dimethylpiperidine-1-carbonyl)-5-(4-(4-fluorophenethoxy)phenyl)-2-methylpyridin-3-yl)acetic acid] | 4 nM | – |
| Cc1nc(N)c(-c2ccc(OCCc3ccc(F)cc3)c(F)c2F)c(N2CCC(C)(C)CC2)c1[C@H](OC(C)(C)C)C(=O)O (single isomer, unassigned) [Example 71] | – | 2 nM |
| Cc1ncc(-c2ccc(OCCc3ccc(F)c(Cl)c3)cn2)c(N2CCC(C)(C)CC2)c1[C@H](OC(C)(C)C)C(=O)O [Example 307, (2S)-2-(tert-butoxy)-2-{5-[2-(3-chloro-4-fluorophenyl)ethoxy]-4′-(4,4-dimethylpiperidin-1-yl)-6′-methyl-[2,3′-bipyridine]-5′-yl}acetic acid] | 1 nM | – |
